The target of assay [1] is T1, CYP116B46 (Tepidiphilus thermophilus, UniProt A0A0K6ITW2).
T1 construct: gene Ga0061068_103196; full-length, synthetic gene in pET46 Ek/LIC (Ni-NTA purified), expressed in E. coli BL21(DE3); residues 27-779 modelled in crystal
Put plainly: hydroxylation assay, GC-FID of silylated products. Format: biochemical. To be noted: 0.4 mM substrate, 10 uM enzyme, 1 mM NADP+ with glucose dehydrogenase/glucose recycling, pH 8.0, 30 C, 5 h.

In assay [2] the target is T1, CYP116B46. The assay can be described thus: X-ray crystal structure. To be noted: crystals at pH 7.0. Format: binding.

The structures appear in SMILES notation.

T1 sequence (A0A0K6ITW2 entry or part of it): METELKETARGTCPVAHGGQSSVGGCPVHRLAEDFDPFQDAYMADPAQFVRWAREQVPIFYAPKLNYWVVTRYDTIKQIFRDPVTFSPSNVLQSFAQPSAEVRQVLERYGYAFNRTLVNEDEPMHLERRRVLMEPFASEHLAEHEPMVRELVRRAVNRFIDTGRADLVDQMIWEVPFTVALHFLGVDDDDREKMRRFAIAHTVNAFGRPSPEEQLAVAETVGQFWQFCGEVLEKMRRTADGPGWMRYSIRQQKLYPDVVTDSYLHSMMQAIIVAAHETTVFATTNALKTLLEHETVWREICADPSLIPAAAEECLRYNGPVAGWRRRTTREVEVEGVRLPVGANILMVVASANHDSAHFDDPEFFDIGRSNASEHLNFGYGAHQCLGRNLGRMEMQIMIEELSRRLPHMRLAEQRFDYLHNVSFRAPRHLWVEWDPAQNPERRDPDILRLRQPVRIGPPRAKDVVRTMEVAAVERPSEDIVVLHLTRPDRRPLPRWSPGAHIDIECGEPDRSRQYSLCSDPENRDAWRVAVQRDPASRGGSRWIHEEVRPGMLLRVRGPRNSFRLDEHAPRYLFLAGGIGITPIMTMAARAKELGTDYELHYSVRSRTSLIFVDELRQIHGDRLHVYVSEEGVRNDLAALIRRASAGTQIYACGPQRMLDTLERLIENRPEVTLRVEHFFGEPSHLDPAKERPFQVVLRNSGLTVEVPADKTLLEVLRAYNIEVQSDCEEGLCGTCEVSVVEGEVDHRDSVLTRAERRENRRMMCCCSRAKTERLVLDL

Regarding `CCCCCCCCCC(=O)O` [decanoic acid], the “hydroxylation assay, GC-FID of silylated products” value on CYP116B46 [1] is “The enzyme activity of CYP116B46 was estimated by decanoic acid hydroxylation assay”. As for `Cc1cc2nc3c(=O)[nH]c(=O)nc-3n(C[C@H](O)[C@H](O)[C@H](O)COP(=O)(O)O)c2cc1C` [FMN], the “X-ray crystal structure, 2.13 A” value at CYP116B46 [2] (reductase domain, co-purified with the recombinant protein) is reported as “The FMN bound in the reductase domain was co-purified with the recombinant protein”.

As to `[S]1[Fe][S][Fe]1` [[2Fe-2S] cluster], the “X-ray crystal structure, 2.13 A” value on CYP116B46 [2] (ferredoxin domain) was “binding sites for each of the prosthetic groups, heme, FMN and binuclear Fe-S cluster”.

The values above are taken from PMC7260179, “Structural insight into the electron transfer pathway of a self-sufficient P450 monooxygenase” (Nature Communications, 2020).
